The record followed here is patent US20250197368A1 (priority 2020, published 2025).

The subject of experiment [1] is human α2β3γ2 GABAARs. The experiment in a line: In vitro electrophysiological recording assay (automated patch-clamp), α2-GABAAR relative efficacy. It counts as cell-based. To be noted: % efficacy normalised to diazepam; GABA EC10-20; concentration generally >= 100 times Ki. Summed up: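 Relative efficacy is % enhancement of the leak-subtracted GABA EC10-20 peak current, divided by the separately measured diazepam value; compound generally tested at ≥100× Ki after ≥1 min pre-application. Recordings at room temperature, human receptors stably expressed in L(tk^−) (QPatch, −65 mV) or HEK293 (SyncroPatch, −80 mV) cells.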
For orientation: The patch-clamp technique gives a direct electrical read-out from membranes.

Experiment [2] addresses human α3β3γ2 GABAARs (benzodiazepine site) (Homo sapiens (Human), UniProt P18507+P34903). Nature of the experiment: In vitro radioligand binding assay ([3H]Ro15-1788 displacement), α3-GABAAR Ki. To be noted: L(tk-) cell membranes, 4 nM [3H]Ro15-1788. On the procedure:
The affinity (Ki) of compounds for the benzodiazepine site of human recombinant GABAARs was measured by their ability to inhibit the binding of the selective benzodiazepine antagonist [^3H]Ro15-1788 ([^3H] flumazenil).
Mouse L(tk^−) cells stably expressing human α1β3γ2, α2β3γ2, α3β3γ2, α5β3γ2 GABAARs were generated by transfection of the individual subunits in the dexamethasone-inducible expression vector pMSGneo in mouse L(tk^−) cells (Hadingham et al., 1993, Mol. Pharmacol. 43:970-975 and 1993, Mol. Pharmacol. 44:1211-1218).
L(tk^−) cells stably expressing human α1β3γ2, α2β3γ2, α3β3γ2, α5β3γ2 GABAARs were maintained in DMEM F12 medium supplemented with 10% Foetal Bovine Serum, 1% Penicillin/Streptomycin and 1 mg/mL Geneticin G418 in an incubator at 37° C. with a humidified atmosphere with 5% CO2. Dexamethasone was added to the culture medium to induce GABAAR expression.
L(tk−) cells were harvested and membranes were prepared for each receptor combination in either TE buffer (10 mM Tris·CI/0.1 mM EDTA, pH 7.5) or phosphate buffer (K2PO4 10 mM, pH 7.0) (Hadingham et al. (1992) Proc. Natl. Acad. Sci. USA; 89 (14): 6378-82). Protein concentration, receptor expression and the Kd of [^3H]Ro15-1788 were determined before Ki value of the compounds were evaluated. For Kd evaluation, saturation binding curves were obtained by incubating membrane with various concentrations of [^3H]Ro15-1788 (82.5 Ci/mM), with nonspecific binding measured in the presence of 1-3 μM TP003.
For Ki evaluation, cell membranes were incubated with 4 nM [^3H]Ro15-1788 along with a range of concentrations of test compound. Nonspecific binding was determined using 1-3 μM TP003. All incubations were performed for 1 hour at 4° C. in assay buffer. The total assay volume was 0.5 mL, containing 40 μg/well α1β3γ2, 30 μg/well α2β3γ2, 40 μg/well α3β3γ2 and 30 μg/well for α5β3γ2 of membrane protein. Incubations were terminated by filtration and washing with ice cold Tris-HCl buffer (50 mM, pH=7.4) over Whatman GF/B filters and the radioactivity of the filters was measured using liquid scintillation counting.
The % inhibition of [^3H]Ro15-1788 binding was plotted as a function of compound concentration and the IC50 calculated. From the IC50, the affinity (Ki) was calculated using the method of Cheng and Prusoff using the Kd values obtained for [^3H]Ro15-1788.

Experiment [3] deals with human α2β3γ2 GABAARs (benzodiazepine site) (Homo sapiens (Human), UniProt P18507+P47869). The experiment in a line: In vitro radioligand binding assay ([3H]Ro15-1788 displacement), α2-GABAAR Ki. A digest of the protocol: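 Ki derived via Cheng-Prusoff from IC50 for displacement of 4 nM [3H]Ro15-1788 (Kd from saturation binding), with 1-3 μM TP003 defining nonspecific binding. Incubation lasted 1 h at 4° C on membranes of induced L(tk−) cells stably transfected with the human subunits; detection by filtration and scintillation counting.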
human α2β3γ2 GABAARs (benzodiazepine site), sequence (P47869 29-451): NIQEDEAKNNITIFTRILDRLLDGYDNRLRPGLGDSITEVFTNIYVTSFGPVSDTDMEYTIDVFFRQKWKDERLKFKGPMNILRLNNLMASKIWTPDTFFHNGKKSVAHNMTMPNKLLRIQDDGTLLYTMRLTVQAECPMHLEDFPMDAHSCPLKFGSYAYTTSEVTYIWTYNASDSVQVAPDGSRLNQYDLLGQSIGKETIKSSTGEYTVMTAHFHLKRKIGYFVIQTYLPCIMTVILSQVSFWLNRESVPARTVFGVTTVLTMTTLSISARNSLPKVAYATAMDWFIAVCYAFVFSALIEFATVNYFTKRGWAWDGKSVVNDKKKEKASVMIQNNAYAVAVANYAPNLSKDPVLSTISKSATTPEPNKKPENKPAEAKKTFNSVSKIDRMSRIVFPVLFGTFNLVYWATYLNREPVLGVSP
human α2β3γ2 GABAARs (benzodiazepine site), sequence (P28472 26-473 partner): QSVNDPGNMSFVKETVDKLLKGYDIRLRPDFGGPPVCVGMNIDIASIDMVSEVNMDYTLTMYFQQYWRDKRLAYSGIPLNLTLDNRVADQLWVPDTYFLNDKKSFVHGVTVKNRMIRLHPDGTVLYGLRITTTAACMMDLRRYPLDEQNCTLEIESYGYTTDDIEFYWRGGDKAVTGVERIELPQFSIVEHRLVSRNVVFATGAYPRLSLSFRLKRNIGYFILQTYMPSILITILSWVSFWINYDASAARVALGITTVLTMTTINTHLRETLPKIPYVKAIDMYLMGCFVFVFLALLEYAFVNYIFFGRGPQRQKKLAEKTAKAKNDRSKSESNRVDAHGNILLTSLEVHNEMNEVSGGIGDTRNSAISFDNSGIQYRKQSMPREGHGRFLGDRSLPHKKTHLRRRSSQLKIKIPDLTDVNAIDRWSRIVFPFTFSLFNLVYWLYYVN
human α2β3γ2 GABAARs (benzodiazepine site), sequence (P18507 40-475): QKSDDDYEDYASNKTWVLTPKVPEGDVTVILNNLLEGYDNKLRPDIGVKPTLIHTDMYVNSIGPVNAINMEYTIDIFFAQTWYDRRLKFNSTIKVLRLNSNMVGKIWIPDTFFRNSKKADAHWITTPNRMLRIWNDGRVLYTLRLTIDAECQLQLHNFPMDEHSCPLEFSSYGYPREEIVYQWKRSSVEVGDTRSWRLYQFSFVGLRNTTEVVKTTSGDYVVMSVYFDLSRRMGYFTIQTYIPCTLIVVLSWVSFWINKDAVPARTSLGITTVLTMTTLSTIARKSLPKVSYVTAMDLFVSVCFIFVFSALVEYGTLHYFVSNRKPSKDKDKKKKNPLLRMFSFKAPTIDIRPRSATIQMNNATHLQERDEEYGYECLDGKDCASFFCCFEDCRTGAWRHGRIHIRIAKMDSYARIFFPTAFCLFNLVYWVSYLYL

For experiment [4], the system named is human α3β3γ2 GABAARs. Nature of the experiment: In vitro electrophysiological recording assay (automated patch-clamp), α3-GABAAR relative efficacy. It counts as cell-based. The settings on record: % efficacy normalised to diazepam; GABA EC10-20; concentration generally >= 100 times Ki. The method, then: The efficacy of modulators was evaluated using the automated patch-clamp platforms QPatch16 (Sophion, Copenhagen, Denmark) or SyncroPatch 384PE (Nanion, Germany).
For QPatch electrophysiology testing L(tk^−) cells stably expressing human α1β3γ2, α2β3γ2, α3β3γ2, α5β3γ2 GABAARs were used. HEK293 cells stably expressing human α1β3γ2L, α2β3γ2L, α3β3γ2L and α5β3γ2L GABAARs were used for the SyncroPatch 384PE experiments.
All experiments were carried out at room temperature (20-22° C.) using a standard whole cell procedure and physiological solutions. Gigaseals were formed upon execution of a combined suction/voltage protocol with subsequent increased suction leading to the whole-cell configuration.
The currents recorded were acquired at either 1 KHz or 2 KHz and filtered using a Bessel filter. Whole-cell currents were measured at a holding potential of-65 mV (QPatch) or −80 mV (SyncroPatch).
For QPatch experiments, the extracellular solution contained of: 145 mM NaCl, 4 mM KCl, 1 mM MgCl2, 2 mM CaCl2), 10 mM HEPES, 10 mM D-glucose (pH 7.4), and the intracellular solution consisted of: 96 mM KCl, 28 mM CsCl, 25 mM KOH, 4.3 mM CaCl2), 1.4 mM MgCl2, 10 mM EGTA, 10 mM HEPES, 3 mM MgATP (pH 7.2). The osmolarities of the extracellular and intracellular solutions were 305 and 295 mOsm respectively.
For SyncroPatch experiments, the extracellular recording solution contained: 140 mM NaCl, 4 mM KCl, 2 mM CaCl2), 1 mM MgCl2, 10 mM HEPES, 5 mM glucose (pH 7.4 with NaOH and osmolarity of c. 300-310 mOsm). The intracellular recording solution consisted of: 90 mM KCl, 50 mM KF, 1.5 mM MgCl2, 11.1 mM EGTA and 10 mM HEPES (pH 7.2 with KOH and osmolarity of c. 300 mOsm). 2 mM of NaATP was added to the intracellular solution on the day of testing.
The effects of modulators were evaluated in the presence of a submaximal GABA concentration, giving typically less than 30% activation of the response elicited by a saturating GABA concentration. To check and ensure baseline current stability before compound addition, two to five consecutive applications of GABA EC10-20 separated by wash steps were performed before compound addition. The test compound was applied 1 min at least prior to co-application with GABA EC10-20. Following a further wash step, a saturating concentration of GABA was applied at the end of each recording, allowing the accurate evaluation for each cell of the percentage baseline activation elicited by the submaximal GABA applied.
The compounds were first dissolved in DMSO as a 10 mM stock and then further diluted to the testing concentrations so that the final DMSO concentration in the extracellular recording solution was 0.1% (QPatch) or 0.2% (SyncroPatch).
The % efficacy of modulators was determined from the GABA elicited currents recorded in the presence and absence of the test compound, using the formula:
[((compound peak current−leak)−(GABA peak current-leak))/(GABA peak current−leak)]*100,
where ‘leak’ is the leak baseline current at the holding potential, ‘compound peak current’ is the current elicited by co-application of compound and GABA, and ‘GABA peak current’ is the current elicited by GABA alone at the last GABA application before compound addition. The results were presented as ‘relative efficacy’ for each compound generally at a concentration equal or higher than 100 times their determined Ki. The relative efficacy of a compound was calculated by normalising its % efficacy to the corresponding % efficacy of diazepam that was separately determined.

`CCCNC(=O)c1c(N)c2cccc(-c3cc(CN4CCN(C)CC4)ccc3F)c2[nH]c1=O` [Example 137, 4-Amino-8-[2-fluoro-5-[(4-methylpiperazin-1-yl)methyl]phenyl]-2-oxo-N-propyl-1H-quinoline-3-carboxamide]: the “α2-GABAAR Relative Efficacy (vs. Diazepam)” value (from here on “α2-GABAAR Relative Efficacy”) in experiment [1] came to 0.42. For the same compound, the results for the Ki in experiment [2] and in experiment [3] were 8.07 nM and 3 nM, respectively. Also, the “α3-GABAAR Relative Efficacy (vs. Diazepam)” value (from here on “α3-GABAAR Relative Efficacy”) in experiment [4] is recorded as 0.53.
In the same order, the values of `CCCNC(=O)c1c(N)c2cccc(-c3ccnc(CO)c3)c2[nH]c1=O` [Example 32, 4-Amino-8-[2-(hydroxymethyl)-4-pyridyl]-2-oxo-N-propyl-1H-quinoline-3-carboxamide] are 0.24, 6.86 nM, 3.09 nM and 0.29.
On to `CCCNC(=O)c1c(N)c2cccc(-c3nc(OC)ncc3F)c2[nH]c1=O` [Example 42, 4-Amino-8-(5-fluoro-2-methoxy-pyrimidin-4-yl)-2-oxo-N-propyl-1H-quinoline-3-carboxamide], for which the “α2-GABAAR Relative Efficacy” value in experiment [1] amounted to 0.25. Also, the Ki (in general, a dissociation constant, usually derived from enzyme kinetics or from competition with a known ligand) in experiment [2] was found to be 0.64 nM; in experiment [3] it was 0.56 nM. In addition, the “α3-GABAAR Relative Efficacy” value in experiment [4] is listed as 0.21.
Turning to `CCCNC(=O)c1c(N)c2cccc(-c3cc(OC)ncc3F)c2[nH]c1=O` [Example 34, 4-Amino-8-(5-fluoro-2-methoxy-4-pyridyl)-2-oxo-N-propyl-1H-quinoline-3-carboxamide], the “α2-GABAAR Relative Efficacy” value in experiment [1] came to 0.49. The Ki was 1.58 nM in experiment [2] and 0.68 nM in experiment [3]. The “α3-GABAAR Relative Efficacy” value in experiment [4] is on record as 0.47.
`CCCNC(=O)c1c(N)c2cccc(-c3nc(C)[nH]c3C)c2[nH]c1=O` [Example 52, 4-Amino-8-(2,5-dimethyl-1H-imidazol-4-yl)-2-oxo-N-propyl-1H-quinoline-3-carboxamide]: the “α2-GABAAR Relative Efficacy” value in experiment [1] stood at 0.53. For the same compound, in experiment [3], the Ki is 6.61 nM. Further, the “α3-GABAAR Relative Efficacy” value in experiment [4] is given as 0.41.
On to `CCCNC(=O)c1c(N)c2cccc(-c3cc(OCc4ccc(F)cn4)ccc3F)c2[nH]c1=O` [Example 92, 4-Amino-8-[2-fluoro-5-[(5-fluoro-2-pyridyl)methoxy]phenyl]-2-oxo-N-propyl-1H-quinoline-3-carboxamide], for which the “α2-GABAAR Relative Efficacy” value in experiment [1] was 0.21. The Ki in experiment [2] came out at 0.81 nM; in experiment [3], 0.48 nM. Also, the “α3-GABAAR Relative Efficacy” value in experiment [4] came to 0.26.
In the same order, the values of `COc1ccncc1-c1cccc2c(N)c(C(=O)NCCC(F)(F)F)c(=O)[nH]c12` [Example 69, 4-Amino-8-(4-methoxypyridin-3-yl)-2-oxo-N-(3,3,3-trifluoropropyl)-1,2-dihydroquinoline-3-carboxamide] are 0.6, 60.5 nM, 26.5 nM and 0.59.
In the same order, the values of `CCCNC(=O)c1c(N)c2cccc(-c3cc(OCc4ccc(C)nc4)ccc3F)c2[nH]c1=O` [Example 110, 4-Amino-8-[2-fluoro-5-[(6-methyl-3-pyridyl)methoxy]phenyl]-2-oxo-N-propyl-1H-quinoline-3-carboxamide] are 0.25, 0.97 nM, 0.59 nM and 0.30.
With `CCCNC(=O)c1c(N)c2cccc(-c3cncc(CO)c3)c2[nH]c1=O` [Example 25, 4-Amino-8-[5-(hydroxymethyl)-3-pyridyl]-2-oxo-N-propyl-1H-quinoline-3-carboxamide], in experiment [1], the “α2-GABAAR Relative Efficacy” value was found to be 0.15. The Ki in experiment [3] was 3.4 nM. For the same compound, the “α3-GABAAR Relative Efficacy” value in experiment [4] is 0.10.
